ChEMBL document CHEMBL5113491, “Discovery of N-benzylarylamide derivatives as novel tubulin polymerization inhibitors capable of activating the Hippo pathway” (Eur J Med Chem, 2022)
Activity calls are given as the source filed them. The rule behind the calls is not given here.

Tests used:
TE-1 = test: Antiproliferative activity against human TE-1 cells assessed as inhibition of cell growth measured after 48 hrs by MTT assay; type: functional, cell-based; settings: TE-1, 48 h
SGC-7901 [1] = test: Induction of G2/M phase cell cycle arrest in human SGC-7901 cells assessed as decrease in cyclin A1 expression at 15 to 45 nmol/L measured after 48 hrs by Western blot analysis; type: functional, cell-based; settings: dose 15-45 nmol/L
MGC-803 [2] = test: Induction of G2/M phase cell cycle arrest in human MGC-803 cells assessed as decrease in cyclin B1 expression at 15 to 45 nmol/L measured after 48 hrs by Western blot analysis; type: functional, cell-based; settings: dose 15-45 nmol/L
SGC-7901 [3] = test: Induction of apoptosis in human SGC-7901 cells assessed as increase in cleaved caspase 7 expression at 15 to 45 nmol/L measured after 48 hrs by Western blot analysis; type: functional, cell-based; settings: dose 15-45 nmol/L
PC-3 = test: Antiproliferative activity against human PC-3 cells assessed as inhibition of cell growth measured after 48 hrs by MTT assay; type: functional, cell-based; settings: PC-3, 48 h
MGC-803 [4] = test: Inhibition of colony formation in human MGC-803 cells measured after 7 days; type: functional, cell-based; settings: dose 6-30 nmol/L, time 7.0 day, DDE = dose-dependent effect
NCI-H520 = test: Antiproliferative activity against human NCI-H520 cells assessed as inhibition of cell growth measured after 48 hrs by MTT assay; type: functional, cell-based; settings: NCI-H520, 48 h
SGC-7901 [5] = test: Induction of cell apoptosis in human SGC-7901 cells assessed as increase in apoptotic cells measured after 48 hrs by Annexin V/PI staining based flow cytometric analysis; type: functional; settings: dose 15-45 nmol/L, DDE = dose-dependent effect
[6] = target: T1, Tubulin beta (Homo sapiens) (UniProt P68371+Q9H4B7+Q13509+P04350+Q3ZCM7+P07437+Q13885+Q9BVA1+Q9BUF5+A6NNZ2); test: Binding affinity to beta-tubulin colchicine binding site in human MGC-803 cells assessed as inhibition of EBI-beta-tubulin adduct band formation preincubated for 2 hrs followed by EBI addition and measured after 2 hrs by EBI competition based Western blotting analysis; type: cell-based; settings: dose 1-10 µM, time 4.0 hrs, DDE = dose-dependent effect
SGC-7901 [7] = test: Induction of morphological changes in human SGC-7901 cells assessed as change in concentration of nuclei at 15 to 45 nmol/L measured after 48 hrs by calcein-AM/PI staining based microscopic analysis; type: functional, cell-based; settings: dose 15-45 nmol/L
MGC-803 [8] = test: Induction of morphological changes in human MGC-803 cells assessed as increase in proportion of dead cells at 15 to 45 nmol/L measured after 48 hrs by calcein-AM/PI staining based microscopic analysis; type: functional, cell-based; settings: dose 15-45 nmol/L
MGC-803 [9] = test: Induction of cell cycle arrest in human MGC-803 cells assessed as increase in G2/M phase cells measured after 24 hrs by flow cytometry; type: functional, cell-based; settings: dose 15-45 nmol/L, DDE = dose-dependent effect
A549 = test: Antiproliferative activity against human A549 cells assessed as inhibition of cell growth measured after 48 hrs by MTT assay; type: functional, cell-based; settings: A549, 48 h
Tubulin (Homo sapiens) [10] = target: T2, Tubulin (Homo sapiens) (UniProt P68371+Q9H4B7+P0DPH7+P68366+Q13509+Q71U36+P04350+Q3ZCM7+P07437+P68363+Q9BQE3+Q6PEY2+Q13885+Q9BVA1+Q9BUF5); test: Induction of microtubule disruption in human MGC-803 cells at 25 nmol/L measured after 48 hrs by DAPI staining based immunofluorescence assay; type: cell-based
Tubulin (Homo sapiens) [11] = target: T2, Tubulin (Homo sapiens); test: Induction of microtubule disruption in human MGC-803 cells measured after 48 hrs by DAPI staining based immunofluorescence assay; type: cell-based; settings: dose 15-45 nmol/L, DDE = dose-dependent effect
[12] = target: T1, Tubulin beta (Homo sapiens); test: Binding affinity to beta-tubulin colchicine binding site in human SGC-7901 cells assessed as inhibition of EBI-beta-tubulin adduct band formation preincubated for 2 hrs followed by EBI addition and measured after 2 hrs by EBI competition based Western blotting analysis; type: cell-based; settings: dose 1-10 µM, time 4.0 hrs, DDE = dose-dependent effect
SGC-7901 [13] = test: Downregulation of YAP protein expression in human SGC-7901 cells measured after 48 hrs by Western blot analysis; type: functional, cell-based; settings: dose 15-45 nmol/L, DDE = dose-dependent effect
SGC-7901 [14] = test: Antiproliferative activity against human SGC-7901 cells assessed as inhibition of cell growth at 15 to 45 […] by MTT assay; type: functional, cell-based; settings: dose 15-45 µmol/L, time <= 72.0 hrs, TDE = time-dependent effect
Sus scrofa = organism: Sus scrofa; test: (§1) Inhibition of porcine brain microtubule polymerization measured after 1 hrs by fluorescence based assay; settings: DDE = dose-dependent effect
[15] = as §1; design: species or system Sus scrofa
SGC-7901 [16] = test: Induction of apoptosis in human SGC-7901 cells assessed as decrease in c-IAP1 protein expression measured after 48 hrs by Western blot analysis; type: functional, cell-based; settings: dose 15-45 nmol/L, DDE = dose-dependent effect
Tubulin (Homo sapiens) [17] = target: T2, Tubulin (Homo sapiens); test: Induction of microtubule disruption in human SGC-7901 cells measured after 48 hrs by DAPI staining based immunofluorescence assay; type: cell-based; settings: dose 15-45 nmol/L, DDE = dose-dependent effect
SGC-7901 [18] = test: Induction of apoptosis in human SGC-7901 cells assessed as decrease in Bcl-xl protein expression measured after 48 hrs by Western blot analysis; type: functional, cell-based; settings: dose 15-45 nmol/L, DDE = dose-dependent effect
SGC-7901 [19] = test: Inhibition of colony formation in human SGC-7901 cells measured after 7 days; type: functional, cell-based; settings: dose 6-30 nmol/L, time 7.0 day, DDE = dose-dependent effect
[20] = Induction of cell apoptosis in human MGC-803 cells assessed as increase in apoptotic cells at 45 nmol/L measured after 48 hrs by Annexin V/PI staining based flow cytometric analysis (reference value: 21.96%); type: functional
MGC-803 [21] = test: Induction of cell cycle arrest in human MGC-803 cells assessed as increase in G2/M phase cells at 45 nmol/L measured after 24 hrs by flow cytometry (reference value: 19.38%); type: functional
GES1 = test: Cytotoxicity against human GES1 cells assessed as reduction in cell viability at 5 to 40 nM measured after 48 hrs by MTT assay; type: toxicity, cell-based; settings: ges1, 48 h, 0.04 µM, dose 5-40 nM
HUVEC = test: Cytotoxicity against human HUVEC cells assessed as reduction in cell viability at 5 to 40 nM measured after 48 hrs by MTT assay; type: toxicity, cell-based; settings: 0.04 µM, dose 5-40 nM
MGC-803 [22] = test: Induction of apoptosis in human MGC-803 cells assessed as increase in cleaved PARP expression at 15 to 45 nmol/L measured after 48 hrs by Western blot analysis; type: functional, cell-based; settings: dose 15-45 nmol/L
MGC-803 [23] = test: Induction of apoptosis in human MGC-803 cells assessed as decrease in Mcl-1 protein expression measured after 48 hrs by Western blot analysis; type: functional, cell-based; settings: dose 15-45 nmol/L, DDE = dose-dependent effect
MGC-803 [24] = test: Induction of G2/M phase cell cycle arrest in human MGC-803 cells assessed as increase in p-Histone H3 expression at 15 to 45 nmol/L measured after 48 hrs by Western blot analysis; type: functional, cell-based; settings: dose 15-45 nmol/L
SGC-7901 [25] = test: Induction of apoptosis in human SGC-7901 cells assessed as increase in cleaved caspase 9 expression at 15 to 45 nmol/L measured after 48 hrs by Western blot analysis; type: functional, cell-based; settings: dose 15-45 nmol/L
MGC-803 [26] = test: Downregulation of TAZ protein expression in human MGC-803 cells measured after 48 hrs by Western blot analysis; type: functional, cell-based; settings: dose 15-45 nmol/L, DDE = dose-dependent effect
SGC-7901 [27] = test: Induction of cell cycle arrest in human SGC-7901 cells assessed as increase in G2/M phase cells measured after 24 hrs by flow cytometry; type: functional, cell-based; settings: dose 15-45 nmol/L, DDE = dose-dependent effect
MGC-803 [28] = test: Induction of morphological changes in human MGC-803 cells assessed as change in concentration of nuclei at 15 to 45 nmol/L measured after 48 hrs by DAPI staining based microscopic analysis; type: functional, cell-based; settings: dose 15-45 nmol/L
MGC-803 [29] = test: Induction of cell apoptosis in human MGC-803 cells assessed as increase in apoptotic cells measured after 48 hrs by Annexin V/PI staining based flow cytometric analysis; type: functional; settings: dose 15-45 nmol/L, DDE = dose-dependent effect

Compound: C/C=C/C(=O)N(Cc1ccc(OC)c(O)c1)c1cc(OC)c(OC)c(OC)c1
- IC50 (TE-1): 94 nM
- Activity (SGC-7901 [1]): Active
- Activity (MGC-803 [2]): Active
- Activity (SGC-7901 [3]): Active
- IC50 (PC-3): 55 nM
- inhibition (MGC-803 [4]): Dde
- IC50 (NCI-H520): 52 nM
- Activity (SGC-7901 [5]): Dde
- Activity [6]: Dde
- Activity (SGC-7901 [7]): Active
- Activity (MGC-803 [8]): Active
- Activity (MGC-803 [9]): Dde
- IC50 (A549): 59 nM
- Activity (Tubulin (Homo sapiens) [10]): Active
- Activity (Tubulin (Homo sapiens) [11]): Dde
- Activity [12]: Dde
- Activity (SGC-7901 [13]): Dde
- Activity (SGC-7901 [14]): Tde
- inhibition (Sus scrofa): Dde
- IC50 [15]: 920 nM
- Activity (SGC-7901 [16]): Dde
- Activity (Tubulin (Homo sapiens) [17]): Dde
- Activity (SGC-7901 [18]): Dde
- inhibition (SGC-7901 [19]): Dde
- Activity [20]: 76.08%
- Activity (MGC-803 [21]): 76.97%
- Activity (GES1): Non-Toxic
- Activity (HUVEC): Non-Toxic
- Activity (MGC-803 [22]): Active
- Activity (MGC-803 [23]): Dde
- Activity (MGC-803 [24]): Active
- Activity (SGC-7901 [25]): Active
- Activity (MGC-803 [26]): Dde
- Activity (SGC-7901 [27]): Dde
- Activity (MGC-803 [28]): Active
- Activity (MGC-803 [29]): Dde
